According to patent publication US20240239861A1, “GLUCAGON-RECEPTOR SELECTIVE POLYPEPTIDES AND METHODS OF USE THEREOF” (i2O Therapeutics, Inc., priority 2016, published 2024):
Where a SMILES comes first, the peptide text is derived from it. [ ]: non-standard residue; d: D form. Aib = CC(C)(N)C(=O)O

Columns and labels:
human GCGR = human GCGR (Homo sapiens, UniProt P47871); assay: Peptide-receptor mediated cAMP accumulation (LANCE Ultra cAMP) in CHO-K1 cells transfected with human GCGR; format: cell-based; conditions: Table 3
human GCGR, sequence (P47871 26-477): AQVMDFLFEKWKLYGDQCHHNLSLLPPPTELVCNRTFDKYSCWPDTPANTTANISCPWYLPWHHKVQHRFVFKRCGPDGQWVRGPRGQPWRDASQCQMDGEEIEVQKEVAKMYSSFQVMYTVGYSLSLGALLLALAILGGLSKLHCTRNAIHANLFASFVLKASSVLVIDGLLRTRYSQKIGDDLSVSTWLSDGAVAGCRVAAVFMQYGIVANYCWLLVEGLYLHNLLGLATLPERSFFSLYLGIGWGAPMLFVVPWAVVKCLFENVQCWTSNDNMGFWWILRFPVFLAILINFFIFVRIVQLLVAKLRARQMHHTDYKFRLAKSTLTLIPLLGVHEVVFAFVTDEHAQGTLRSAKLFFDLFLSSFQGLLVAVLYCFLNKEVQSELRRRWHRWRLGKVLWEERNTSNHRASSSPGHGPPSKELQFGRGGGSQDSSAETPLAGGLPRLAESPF

human GLP-1R = human GLP-1R (Homo sapiens, UniProt P43220); assay: Peptide-receptor mediated cAMP accumulation (LANCE Ultra cAMP) in CHO-K1 cells transfected with human GLP-1R; format: cell-based; conditions: hGLP1 pEC50 (cAMP mean (n = 3): 11 point curve starting at 1 nM, Table 3)
human GLP-1R, sequence (P43220 24-463): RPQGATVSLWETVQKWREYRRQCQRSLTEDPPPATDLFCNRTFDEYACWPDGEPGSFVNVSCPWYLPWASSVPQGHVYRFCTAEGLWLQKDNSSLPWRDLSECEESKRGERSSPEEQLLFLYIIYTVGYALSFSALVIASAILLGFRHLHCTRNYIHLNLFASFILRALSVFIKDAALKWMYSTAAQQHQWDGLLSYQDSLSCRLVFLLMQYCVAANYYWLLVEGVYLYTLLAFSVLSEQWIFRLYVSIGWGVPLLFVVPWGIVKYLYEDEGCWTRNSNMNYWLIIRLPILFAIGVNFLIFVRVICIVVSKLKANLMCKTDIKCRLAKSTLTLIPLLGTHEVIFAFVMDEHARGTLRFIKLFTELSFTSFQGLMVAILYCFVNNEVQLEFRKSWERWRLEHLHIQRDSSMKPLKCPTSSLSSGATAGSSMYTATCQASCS

SMILES	EC50 (human GCGR) [nM]	EC50 (human GLP-1R) [nM]
CC(C)C[C@H](NC(=O)[C@H](Cc1ccc(O)cc1)NC(=O)[C@H](CCCCN)NC(=O)[C@H](CO)NC(=O)[C@H](Cc1ccc(O)cc1)NC(=O)[C@H](CC(=O)O)NC(=O)[C@H](CO)NC(=O)[C@@H](NC(=O)[C@H](Cc1ccccc1)NC(=O)[C@@H](NC(=O)CNC(=O)[C@H](Cc1c[nH]cn1)NC(=O)[C@H](CO)NC(=O)[C@@H](N)Cc1ccc(O)cc1)[C@@H](C)O)[C@@H](C)O)C(=O)N[C@@H](CC(=O)O)C(=O)NC(C)(C)C(=O)N[C@@H](CCCCN)C(=O)N[C@@H](CCCNC(=N)N)C(=O)N[C@@H](C)C(=O)N[C@@H](CCC(N)=O)C(=O)N[C@@H](CCC(=O)O)C(=O)N[C@@H](Cc1ccccc1)C(=O)N[C@H](C(=O)NC(C)(C)C(=O)N[C@@H](Cc1c[nH]c2ccccc12)C(=O)N[C@@H](CC(C)C)C(=O)N[C@@H](CCC(=O)O)C(=O)N[C@@H](CC(=O)O)C(=O)N[C@@H](CCC(=O)O)C(=O)N1CCC[C@H]1C(=O)N[C@@H](CO)C(=O)N[C@@H](CO)C(=O)N[C@@H](CCCCN)C(=O)N[C@@H](C)C(=O)N1CCC[C@H]1C(=O)N1CCC[C@H]1C(=O)N1CCC[C@H]1C(=O)N[C@@H](CO)C(=O)O)C(C)C [Compound A23] (H-YSHGTFTSDYSKYLD[Aib]KRAQEFV[Aib]WLEDEPSSKAPPPS-OH; N-terminus assumed)	0.00631	> 1
CC(C)C[C@H](NC(=O)[C@H](Cc1ccc(O)cc1)NC(=O)[C@H](CCCCN)NC(=O)[C@H](CO)NC(=O)[C@H](Cc1ccc(O)cc1)NC(=O)[C@H](CC(=O)O)NC(=O)[C@H](CO)NC(=O)[C@@H](NC(=O)[C@H](Cc1ccccc1)NC(=O)[C@@H](NC(=O)CNC(=O)[C@H](Cc1c[nH]cn1)NC(=O)[C@H](CO)NC(=O)[C@@H](N)Cc1ccc(O)cc1)[C@@H](C)O)[C@@H](C)O)C(=O)N[C@@H](CC(=O)O)C(=O)NC(C)(C)C(=O)N[C@@H](CCCCN)C(=O)N[C@@H](CCCNC(=N)N)C(=O)N[C@@H](C)C(=O)N[C@@H](CCC(N)=O)C(=O)N[C@@H](CCC(=O)O)C(=O)N[C@@H](Cc1ccccc1)C(=O)N[C@H](C(=O)NC(C)(C)C(=O)N[C@@H](Cc1c[nH]c2ccccc12)C(=O)N[C@@H](CC(C)C)C(=O)N[C@@H](CCC(=O)O)C(=O)N[C@@H](CC(=O)O)C(=O)N[C@@H](CCC(=O)O)C(=O)N1CCC[C@H]1C(=O)N[C@@H](CO)C(=O)N[C@@H](CO)C(=O)NCC(=O)N[C@@H](C)C(=O)N1CCC[C@H]1C(=O)N1CCC[C@H]1C(=O)N1CCC[C@H]1C(=O)N[C@@H](CO)C(=O)N[C@@H](CO)C(=O)O)C(C)C [Compound A25] (H-YSHGTFTSDYSKYLD[Aib]KRAQEFV[Aib]WLEDEPSSGAPPPSS-OH; N-terminus assumed)	0.00501	> 1
CC(C)C[C@H](NC(=O)[C@H](Cc1ccc(O)cc1)NC(=O)[C@H](CCCCN)NC(=O)[C@H](CO)NC(=O)[C@H](Cc1ccc(O)cc1)NC(=O)[C@H](CC(=O)O)NC(=O)[C@H](CO)NC(=O)[C@@H](NC(=O)[C@H](Cc1ccccc1)NC(=O)[C@@H](NC(=O)CNC(=O)[C@H](Cc1c[nH]cn1)NC(=O)[C@H](CO)NC(=O)[C@@H](N)Cc1ccc(O)cc1)[C@@H](C)O)[C@@H](C)O)C(=O)N[C@@H](CC(=O)O)C(=O)NC(C)(C)C(=O)N[C@@H](CCCCN)C(=O)N[C@@H](CCCNC(=N)N)C(=O)N[C@@H](C)C(=O)N[C@@H](CCC(N)=O)C(=O)N[C@@H](CCC(=O)O)C(=O)N[C@@H](Cc1ccccc1)C(=O)N[C@H](C(=O)NC(C)(C)C(=O)N[C@@H](Cc1c[nH]c2ccccc12)C(=O)N[C@@H](CC(C)C)C(=O)N[C@@H](CCC(=O)O)C(=O)N[C@@H](CC(=O)O)C(=O)N[C@@H](CCC(=O)O)C(=O)N1CCC[C@H]1C(=O)N[C@@H](CO)C(=O)N[C@@H](CO)C(=O)NCC(=O)N[C@@H](C)C(=O)N1CCC[C@H]1C(=O)N1CCC[C@H]1C(=O)N1CCC[C@H]1C(=O)N[C@@H](CO)C(=O)N[C@@H](CCC(=O)O)C(=O)O)C(C)C [Compound A26] (H-YSHGTFTSDYSKYLD[Aib]KRAQEFV[Aib]WLEDEPSSGAPPPSE-OH; N-terminus assumed)	0.00794	> 1
CC(C)C[C@H](NC(=O)[C@H](Cc1ccc(O)cc1)NC(=O)[C@H](CCCCN)NC(=O)[C@H](CO)NC(=O)[C@H](Cc1ccc(O)cc1)NC(=O)[C@H](CC(=O)O)NC(=O)[C@H](CO)NC(=O)[C@@H](NC(=O)[C@H](Cc1ccccc1)NC(=O)[C@@H](NC(=O)CNC(=O)[C@H](Cc1c[nH]cn1)NC(=O)[C@H](CO)NC(=O)[C@@H](N)Cc1ccc(O)cc1)[C@@H](C)O)[C@@H](C)O)C(=O)N[C@@H](CC(=O)O)C(=O)NC(C)(C)C(=O)N[C@@H](CCCCN)C(=O)N[C@@H](CCCNC(=N)N)C(=O)N[C@@H](C)C(=O)N[C@@H](CCC(N)=O)C(=O)N[C@@H](CCC(=O)O)C(=O)N[C@@H](Cc1ccccc1)C(=O)N[C@H](C(=O)NC(C)(C)C(=O)N[C@@H](Cc1c[nH]c2ccccc12)C(=O)N[C@@H](CC(C)C)C(=O)N[C@@H](CCC(=O)O)C(=O)N[C@@H](CC(=O)O)C(=O)N[C@@H](CCC(=O)O)C(=O)N1CCC[C@H]1C(=O)N[C@@H](CCCCN)C(=O)N[C@@H](CO)C(=O)NCC(=O)N[C@@H](C)C(=O)N1CCC[C@H]1C(=O)N1CCC[C@H]1C(=O)N1CCC[C@H]1C(=O)N[C@@H](CO)C(=O)O)C(C)C [Compound A29] (H-YSHGTFTSDYSKYLD[Aib]KRAQEFV[Aib]WLEDEPKSGAPPPS-OH)	0.00794	> 1

Other lines, results leading:

EC50 (human GCGR) [nM]	EC50 (human GLP-1R) [nM]	SMILES
0.00794	> 1	CC(C)C[C@H](NC(=O)[C@H](Cc1ccc(O)cc1)NC(=O)[C@H](CCCCN)NC(=O)[C@H](CO)NC(=O)[C@H](Cc1ccc(O)cc1)NC(=O)[C@H](CC(=O)O)NC(=O)[C@H](CO)NC(=O)[C@@H](NC(=O)[C@H](Cc1ccccc1)NC(=O)[C@@H](NC(=O)CNC(=O)[C@H](Cc1c[nH]cn1)NC(=O)[C@H](CO)NC(=O)[C@@H](N)Cc1ccc(O)cc1)[C@@H](C)O)[C@@H](C)O)C(=O)N[C@@H](CC(=O)O)C(=O)NC(C)(C)C(=O)N[C@@H](CCCCN)C(=O)N[C@@H](CCCNC(=N)N)C(=O)N[C@@H](C)C(=O)N[C@@H](CCC(N)=O)C(=O)N[C@@H](CCC(=O)O)C(=O)N[C@@H](Cc1ccccc1)C(=O)N[C@H](C(=O)NC(C)(C)C(=O)N[C@@H](Cc1c[nH]c2ccccc12)C(=O)N[C@@H](CC(C)C)C(=O)N[C@@H](CCC(=O)O)C(=O)N[C@@H](CC(=O)O)C(=O)N[C@@H](CCC(=O)O)C(=O)N1CCC[C@H]1C(=O)N[C@@H](CO)C(=O)N[C@@H](CO)C(=O)NCC(=O)N[C@@H](CCC(=O)O)C(=O)N1CCC[C@H]1C(=O)N1CCC[C@H]1C(=O)N1CCC[C@H]1C(=O)N[C@@H](CO)C(=O)O)C(C)C [Compound A21] (H-YSHGTFTSDYSKYLD[Aib]KRAQEFV[Aib]WLEDEPSSGEPPPS-OH; N-terminus assumed)
0.01	> 1	CC(C)C[C@H](NC(=O)[C@H](Cc1ccc(O)cc1)NC(=O)[C@H](CCCCN)NC(=O)[C@H](CO)NC(=O)[C@H](Cc1ccc(O)cc1)NC(=O)[C@H](CC(=O)O)NC(=O)[C@H](CO)NC(=O)[C@@H](NC(=O)[C@H](Cc1ccccc1)NC(=O)[C@@H](NC(=O)CNC(=O)[C@H](Cc1c[nH]cn1)NC(=O)[C@H](CO)NC(=O)[C@@H](N)Cc1ccc(O)cc1)[C@@H](C)O)[C@@H](C)O)C(=O)N[C@@H](CC(=O)O)C(=O)NC(C)(C)C(=O)N[C@@H](CCCCN)C(=O)N[C@@H](CCCNC(=N)N)C(=O)N[C@@H](C)C(=O)N[C@@H](CCC(N)=O)C(=O)N[C@@H](CCC(=O)O)C(=O)N[C@@H](Cc1ccccc1)C(=O)N[C@H](C(=O)NC(C)(C)C(=O)N[C@@H](Cc1c[nH]c2ccccc12)C(=O)N[C@@H](CC(C)C)C(=O)N[C@@H](CCC(=O)O)C(=O)N[C@@H](CC(=O)O)C(=O)N[C@@H](CCC(=O)O)C(=O)N1CCC[C@H]1C(=O)N[C@@H](CO)C(=O)N[C@@H](CO)C(=O)NCC(=O)N[C@@H](CO)C(=O)N1CCC[C@H]1C(=O)N1CCC[C@H]1C(=O)N1CCC[C@H]1C(=O)N[C@@H](CO)C(=O)O)C(C)C [Compound A22] (H-YSHGTFTSDYSKYLD[Aib]KRAQEFV[Aib]WLEDEPSSGSPPPS-OH; N-terminus assumed)
0.0126	> 1	CC(C)C[C@H](NC(=O)[C@H](Cc1ccc(O)cc1)NC(=O)[C@H](CCCCN)NC(=O)[C@H](CO)NC(=O)[C@H](Cc1ccc(O)cc1)NC(=O)[C@H](CC(=O)O)NC(=O)[C@H](CO)NC(=O)[C@@H](NC(=O)[C@H](Cc1ccccc1)NC(=O)[C@@H](NC(=O)CNC(=O)[C@H](Cc1c[nH]cn1)NC(=O)[C@H](CO)NC(=O)[C@@H](N)Cc1ccc(O)cc1)[C@@H](C)O)[C@@H](C)O)C(=O)N[C@@H](CC(=O)O)C(=O)NC(C)(C)C(=O)N[C@@H](CCCCN)C(=O)N[C@@H](CCCNC(=N)N)C(=O)N[C@@H](C)C(=O)N[C@@H](CCC(N)=O)C(=O)N[C@@H](CCC(=O)O)C(=O)N[C@@H](Cc1ccccc1)C(=O)N[C@H](C(=O)NC(C)(C)C(=O)N[C@@H](Cc1c[nH]c2ccccc12)C(=O)N[C@@H](CC(C)C)C(=O)N[C@@H](CCC(=O)O)C(=O)N[C@@H](CC(=O)O)C(=O)N[C@@H](CCC(=O)O)C(=O)N1CCC[C@H]1C(=O)N[C@@H](CO)C(=O)N[C@@H](CCCCN)C(=O)NCC(=O)N[C@@H](C)C(=O)N1CCC[C@H]1C(=O)N1CCC[C@H]1C(=O)N1CCC[C@H]1C(=O)N[C@@H](CO)C(=O)O)C(C)C [Compound A30] (H-YSHGTFTSDYSKYLD[Aib]KRAQEFV[Aib]WLEDEPSKGAPPPS-OH; N-terminus assumed)
